Test results from patent publication US20140249105A1, “NOVEL CERAMIDE ANALOGUES, PROCESSES FOR PREPARING SAME AND USES THEREOF” (Diverchim, priority 2011, published 2014).
Values joined by “and” are separate entries in the source; they are usually repeats but may differ in a detail not shown here. Equal entries are not always repeated.

What was measured:
Format in all cases: cell-based
[1] = target: T1, tyrosinase (DOPA oxidase) (Homo sapiens, UniProt P14679); experiment: Screening of anti-tyrosinase activity: DOPA oxidase reaction on separated epidermis, count of DOPA positive melanocytes per mm2; details: for Variation/control: DOPA positive melanocyte count per mm2 vs DOPA control, product at 30 μg/mL in DMSO; for effectiveness for limiting tyrosinase activity compared with reference compounds: vs ref 1
T1 construct: from tissue; host or cells: separated human epidermis from a frozen abdominoplasty (melanocytes in situ)
T1 sequence (P14679 19-529): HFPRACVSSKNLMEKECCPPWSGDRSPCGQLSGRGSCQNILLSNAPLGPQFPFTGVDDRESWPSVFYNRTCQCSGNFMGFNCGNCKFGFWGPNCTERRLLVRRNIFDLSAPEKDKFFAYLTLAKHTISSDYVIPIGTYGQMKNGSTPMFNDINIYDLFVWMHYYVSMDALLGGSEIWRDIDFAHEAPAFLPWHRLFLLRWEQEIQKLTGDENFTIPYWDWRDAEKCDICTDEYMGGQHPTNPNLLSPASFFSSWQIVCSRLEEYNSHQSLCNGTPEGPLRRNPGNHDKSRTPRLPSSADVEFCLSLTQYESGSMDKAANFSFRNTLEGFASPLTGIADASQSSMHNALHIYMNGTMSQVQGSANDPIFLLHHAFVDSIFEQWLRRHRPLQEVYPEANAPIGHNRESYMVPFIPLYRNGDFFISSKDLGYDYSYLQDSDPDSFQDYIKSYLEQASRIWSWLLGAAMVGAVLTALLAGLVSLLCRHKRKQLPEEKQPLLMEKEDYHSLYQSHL
Description: The products are tested in solution at 30 μg/mL in DMSO. Epidermis samples originating from a frozen abdominoplasty (person) were separated by incubation in 2N NaBr for 1.0 h at 37° C. They were then fixed in a buffered formolized fixing agent, rinsed and put in contact with the volume/volume mixture: solutions of L-DOPA/test formulation. After incubation, they were rinsed and mounted between slide and cover slip with mounting liquid of the Aquatex type. Observation was by optical microscopy with ×10 objective. Images were obtained with a tri CCD Sony DXC […] camera and stored using the Leica IM1000 data archiving software. For each batch, several microscope fields were analysed using the LEICA QWin image analysis software. For each field, the DOPA positive melanocytes were counted and the area of the zone was measured to determine the melanocyte count per mm^2.

[2] = tested on: B16 melanocytes; experiment: Screening of anti-melanogenesis activity: melanin assay in B16 melanocytes stimulated with NDP-MSH; details: 72 h; for inhibition at 30 µM / inhibition at 100 µM: Melanocyte, read-out: Normalized data inhibition (%)
Description: This was carried out for compounds in solution in DMSO. The synthesis of melanin was measured in a model of B16 melanocytes stimulated with a stable derivative of α-MSH (natural hormone that stimulates melanogenesis: Melanocyte Stimulating Hormone): NDP-MSH ([Nle^4, DPhe7]-α-MSH).
(§1) Melanocytes were seeded on a 96-well plate and cultured for 24 h (37° C., 5% CO2, DMEM 1 g/L glucose without phenol red supplemented with glucose 3 g/L, L-glutamine 2 mM, penicillin 50 U/mL, streptomycin 50 μg/mL, fetal calf serum (FCS) 10%). […] Each experimental condition was carried out with n=3, apart from the controls carried out with n=6. The cells were then incubated for 72 h. Wells without cells received in parallel the same quantities of medium, supplemented or not with NDP-MSH and with or without the test compounds or the reference in order to quantify the background noise associated with the presence of the compounds.
At the end of 72 hours of incubation, the total melanin (intra- and extracellular) was quantified by measuring the absorbance of each sample at 405 nm (direct reading of the culture plates) against a standard range of melanin (melanin concentrations tested from 0.78 to 100 μg/mL). The background noise, measured in the wells without cells, was subtracted from the values measured so that only the effect connected with the production of melanin is taken into account, without including any interference connected with the presence of the compounds. The results were expressed in percentage of melanin relative to the control as well as in percentage inhibition.

[3] = tested on: B16 melanocytes; experiment: Viability of the cells, test of reduction of MTT; details: 72 h
Description: as §1
At the end of the treatment, the cells were incubated in the presence of MTT (3-(4,5-dimethylthiazol-2-yl)-2,5-diphenyl tetrazolium bromide), the conversion of which to blue crystals of formazan is proportional to the activity of succinate dehydrogenase (mitochondrial enzyme). After disruption of the cells, the formazan was dissolved in DMSO medium and the optical density (OD), representative of the number of live cells and of their metabolic reactivity, was measured with a microplate reader at 540 nm (VERSAmax, Molecular Devices).

[4] = tested on: Normal human epidermal keratinocytes (NHEK); experiment: Proliferation and/or migration of keratinocytes, artificial wound coverage; details: percentage coverage at 48 h
Description: The phases of migration and proliferation of cells are major phases of healing that occur after the inflammation phase and are necessary for recolonization of the wound. An increase in the migration and proliferation of cells allows an improvement in healing. • Biological model: Normal human epidermal keratinocytes (NHEK) • Culture conditions: 37° C., 5% CO2 • Culture medium: Keratinocyte-SFM-PE-EGF (keratinocyte culture medium—serum free medium (SFM) without pituitary extract (PE) and without Epidermal Growth Factor (EGF) • Conditions: • Control (n=6) • Reference: EGF (Epidermal Growth Factor) at 10 ng/ml (n=2) • compounds tested (n=2) • Incubation: 72 hours • Assay: Normal human keratinocytes were seeded on 96-well plates suitable for the migration studies. In these plates, the substrates were pretreated with a solution of collagen and a mask was placed at the centre of each well, preventing adhesion of the cells in this zone and thus forming an artificial wound. After labelling the cells with calcein, the masks were removed and then the cells were treated with the compounds or the reference. The migration of the cells was monitored microscopically for 72 hours, taking photographs at 0 h, 24 h, 48 h and 72 h. The results are expressed in percentage coverage and compared with the untreated control.

O=C(NC1CCC(NC(=O)C(F)=CCCCCCCCCO)C1)C(F)=CCCCCCCCCO (mixture of isomers) [c59]
Variation/control [1]: −56 | effectiveness for limiting tyrosinase activity compared with reference compounds [1]: more effective than the reference compounds | Normalized data inhibition (%) ([2]; 1 μM): 0% | Normalized data inhibition (%) ([2]; 3 μM): 9% | Normalized data inhibition (%) ([2]; 10 μM): 38% | Normalized data inhibition (%) ([2]; 30 μM): 71% | Normalized data inhibition (%) ([2]; 100 μM): 118% | Viability (MTT) % stimulated control ([3]; 1 μM): 108 % stimulated control | Viability (MTT) % stimulated control ([3]; 3 μM): 90 % stimulated control | Viability (MTT) % stimulated control ([3]; 10 μM): 88 % stimulated control | Viability (MTT) % stimulated control ([3]; 30 μM): 82 % stimulated control | Viability (MTT) % stimulated control ([3]; 100 μM): 2 % stimulated control

O=C(/C=C/CCCCCCCCCCCO)N[C@H]1CCC[C@H]1NC(=O)/C=C/CCCCCCCCCCCO [c17]
% control 48 h ([4]; 1 μM): 141 % control

CCCCCCCCC=CCCCCCCCC(=O)NC1CCCC1NC(=O)CCCCCCCC=CCCCCCCCC (stereo not drawn) [c127]
Variation/control [1]: −45

O=C(O)/C=C/CCCCCCCCCCCCO [Ref 5, (E)-15-Hydroxy-pentadec-2-enoic acid, reference compound]
Variation/control [1]: −29

O=C(O)/C=C/CCCCCCCCCO [Ref 6, (E)-12-Hydroxy-dodec-2-enoic acid, reference compound]
Variation/control [1]: −24

O=C(N[C@H]1C[C@H]1NC(=O)/C(F)=C/CCCCCCCCCCCO)/C(F)=C/CCCCCCCCCCCO [c40]
Variation/control [1]: −61 | effectiveness for limiting tyrosinase activity compared with reference compounds [1]: more effective than the reference compounds | Normalized data inhibition (%) ([2]; 10 μM): −1% | Viability (MTT) % stimulated control ([3]; 10 μM): 89 % stimulated control | Viability (MTT) % stimulated control ([3]; 30 μM): 85 % stimulated control and 94 % stimulated control | Viability (MTT) % stimulated control ([3]; 100 μM): 86 % stimulated control and 94 % stimulated control | % control 48 h ([4]; 30 μM): 144 % control

O=C(NC1CCCC1NC(=O)C(F)=CCCCCCCCCCCCCCCO)C(F)=CCCCCCCCCCCCCCCO (stereo not drawn) [c53]
% control 48 h ([4]; 3 μM): 137 % control

O=C(O)/C=C/CCCCCCCCCCCCCCCO [Ref 1, (E)-18-Hydroxy-octadec-2-enoic acid, reference compound]
Variation/control [1]: −16 | inhibition at 30 µM ([2]; 30 μM): 0% | inhibition at 100 µM ([2]; 100 μM): 115% | Viability (MTT) % stimulated control ([3]; mouse, 30 μM): 79 % stimulated control | Viability (MTT) % stimulated control ([3]; mouse, 100 μM): 63 % stimulated control

O=C(O)C(F)=CCCCCCCCCCCCO [Ref 4, 2-Fluoro-14-hydroxy-tetradec-2-enoic acid, reference compound]
Variation/control [1]: −36 | inhibition at 30 µM ([2]; 30 μM): 0% | inhibition at 100 µM ([2]; 100 μM): 0% | Viability (MTT) % stimulated control ([3]; 30 μM): 114 % stimulated control | Viability (MTT) % stimulated control ([3]; 100 μM): 95 % stimulated control

O=C(N[C@H]1C[C@H]1NC(=O)C(F)=CCCCCCCCO)C(F)=CCCCCCCCO [c36]
% control 48 h ([4]; 3 μM): 154 % control

CCCCCCCCCCC/C=C/C(=O)N[C@H]1CCC[C@H]1NC(=O)/C=C/CCCCCCCCCCC [c79]
Variation/control [1]: −45 | % control 48 h ([4]; 1 μM): 141 % control

O=C(/C=C/CCCCCCCCCCCCCCO)N[C@H]1C[C@@H]1NC(=O)/C=C/CCCCCCCCCCCCCCO (relative stereo) [c93]
Variation/control [1]: −48

O=C(N[C@H]1CCC[C@H]1NC(=O)/C(F)=C/CCCCCCCO)/C(F)=C/CCCCCCCO [c45]
% control 48 h ([4]; 3 μM): 145 % control

O=C(O)/C=C/CCCCCCCCCCCO [Ref 3, (E)-14-Hydroxy-tetradec-2-enoic acid, reference compound]
Variation/control [1]: −15

O=C(N[C@H]1CCC[C@H]1NC(=O)/C(F)=C\CCCCCCCCOC1CCCCO1)/C(F)=C\CCCCCCCCOC1CCCCO1 (stereo partly drawn) [c72]
Normalized data inhibition (%) ([2]; 30 μM): 87% | Normalized data inhibition (%) ([2]; 100 μM): 112% | Viability (MTT) % stimulated control ([3]; 30 μM): 102 % stimulated control | Viability (MTT) % stimulated control ([3]; 100 μM): 86 % stimulated control

O=C(NC1CCC(NC(=O)C(F)=CCCCCCOC2CCCCO2)C1)C(F)=CCCCCCOC1CCCCO1 (stereo not drawn) [c149]
Normalized data inhibition (%) ([2]; 30 μM): 108% | Normalized data inhibition (%) ([2]; 100 μM): 120% | Viability (MTT) % stimulated control ([3]; 30 μM): 87 % stimulated control | Viability (MTT) % stimulated control ([3]; 100 μM): 28 % stimulated control
